Assay results as given in patent US5273989A, “3,5-disubstituted 2-isoxazolines and isoxazoles, agents containing them and their use” (Hoechst Aktiengesellschaft, priority 1990, dated 1993).
Counter-ions that a name gives are not always drawn. Like-named read-outs stand apart in the source and are kept apart here.

Assays:
[1] = system: NMDA receptor-channel complex; test: Inhibition of 3H-MK-801 binding to membranes from rat brain; conditions: preparation concentration 50 μM; 3H-MK801 1 nM
Protocol: 3. Inhibition of ^3 H-MK-801 binding to membranes from rat brain
Test principle: MK-801 is a non-competitive antagonist which binds to ion channels coupled to NMDA receptors (Yoneda et al., Brain Res. 499 (1989), 305). Membranes from whole brain containing preparation and ^3 H-MK-801 are incubated in the test. The binding of ^3 H-MK-801 or its displacement by preparations (antagonists) is determined by radiochemical methods.
Experimental protocol: The binding experiments are carried out by the method of Reynolds et al. (Proc. Natl. Acad. Sci. USA, 84 (1987), 7744). Membrane preparation is first carried out according to Reynolds. Test samples are then pipetted, buffer and test preparation being initially introduced, then preincubated with protein for 2 minutes, and initiated using ^3 H-MK801. The membranes are thawed at 37° C., incubated at 37° C. for 10 minutes and homogenized for 15 seconds at half the maximum speed by means of a Polytron, then used in the cool state again. The incubation medium contains: pH 7.4 Hepes buffer 20 mM, preparations in three concentrations 5 μM, 10 μM and 50 μM, membranes 500 μg/ml of test solution, ^3 H-MK801 1 nM. Incubation is carried out at room temperature (23° C.) for 60 minutes and is then stopped by filtration. For this purpose, glass fiber paper No. 32 from Schleicher and Schull, which had been soaked in 0.03% polyethyleneimine for 30 minutes on the day before the experiment are counted in 4 ml of "Packard 199™" Scintillation fluid (Frankfurt). Tritium is determined by liquid scintillation counting using a Packard 1500.
Calculation of the results: The calculation of the binding in femtomol/mg of protein over a period of 60 min. was carried out using a small calculator (HP-97). If a substance antagonizes the binding, the value decreases. Substance activities are indicated in Table 5 as percentages, i.e. in % binding compared to the control. The activity of the comparison preparation CPP (3-(+)-2-carboxypiperazin-4-ylpropyl-1-phosphonic acid) at 5 μM, 10 μM and 50 μM is always determined to check the test.

[2] = system: NMDA-stimulated 3H-acetylcholine release, striatum sections; test: Inhibition of NMDA-stimulated 3H-acetylcholine release from striatum sections of the rat brain; type: cell-based
Protocol: 2. Inhibition of ^3 H-acetylcholine release from striatum sections of the rat brain
Test principle: For the test, fresh striatum sections from rat brain were rinsed with buffer solution in a special chamber and the release of the tritium-labeled acetylcholine was measured after stimulation with NMDA. Preparations having NMDA-antagonist action inhibit acetylcholine release.
Experimental protocol: The superfusion experiments were carried out by the method of Wichman et al. (Naunyn-Schmied. Arch. Pharmacol., 338 (1988), 623-631). Rat brain sections, 0.5 mm thick, were preincubated for 30 min in 2 ml of incubation medium which contains 0.1 μmol/l of ^3 H-choline having a specific activity of 80 Ci/mmol. In each of 6 superfusion chambers, a section was transferred and superfused for 90 min at a rate of 1.5 ml/min. 2 min fraction of the superfusate were continuously collected. Each section was superfused twice with 25 μmol/l of NMDA of two minutes each time in order to stimulate the release of acetylcholine. The first stimulus (S1) takes place between the 54th and the 56th minute and the 2nd stimulus (S2) between the 76th and 78th minute. The incubation medium contained, in mmol/l: NaCl 118, KCl 4.8, CaCl2 1.2, MgSO4 1.2, NaHCO3 25, KH2 PO4 1.2 and glucose 10. The medium was saturated with Carbogen at 37° C. The pH was adjusted to 7.4 NMDA and the novel preparations to be tested were dissolved in superfusion medium. The superfusion was carried out using Mg^2+ -free medium. Tritium from the dissolved sections and from the superfusate was determined by liquid scintillation counting using a Packard® 1900 CA (Frankfurt) at a 50% efficiency.
Calculation of the Results
Basal release and NMDA-stimulated release for S1 and S2 were expressed in %/min of each fraction (Limberger et al, Naunyn Schmied. Arch. Pharmacol. 339 (1988), 53-61).
The value for the stimulated release S2 /S1 was calculated for the control as 0.69±0.09. The value decreases if a substance, such as, for example, the NMDA receptor antagonist CPP (3-(+)-2-carboxypiperazin-4-ylpropyl-1-phosphonic acid) known from the literature inhibited the NMDA-stimulated release. The inhibition of the stimulated release by preparations was calculated in percent, relative to the control value, and is indicated in Table 4.

[3] = Toxicity (LD50) in the mouse; conditions: in vivo, iv
Excerpt: As the examples investigated show considerable differences in toxicity compared to the standard substances, the LD50 values are also listed in Table 6,

[4] = system: high affinity 3H-D-aspartate absorption, synaptic vesicles (synaptosomes) from rat cortex; test: "High affinity" absorption of 3H-aspartate in a vesicle preparation from rat brain; type: biochemical; conditions: relative to control values (100%)
Protocol: 1. "High affinity" absorption of ^3 H-aspartate in a vesicle preparation from rat brain.
Test principle: Fresh synaptic vesicles (synaptosomes) from rat cortex are incubated with buffer solution and ^3 H-D-aspartate and ^3 H-D-aspartate in the vesicles is measured. Preparations which in comparison to control synaptosomes increase the high affinity ^3 H-D-aspartate absorption and those which prevent the loss of ^3 H-D-aspartate by reliberation are regarded as particularly interesting.
Experimental protocol: The experiments for ^3 H-D-aspartate absorption were carried out by the method of Anand et al. (Biochem. Pharmacol., 35 (1986), 1055-1057). The synaptic vesicles were dissected out of cerebral cortex from male Sprague-Dawley rats. The preparations were tested at four concentrations as double samples in parallel with control samples containing buffer. The incubation medium (pH 7.4) contains: 1.2 mM KH2 PO4, 5 mM KCl, 5 mM pyruvate, 1.2 mM glucose, 1.2 mM MgCl2, 114 mM NaCl, 25 mM NaHCO3. For the non-specific ^3 H-D-aspartate absorption, NaCl was replaced by 114 mM choline chloride and NaHCO3 by 25 mM KHCO3. An aliquot of the vesicle suspension (about 25 μg/ml of test solution) was added to the test sample which was temperature controlled at 37° C. and aerated with Carbogen (5% CO2, 95% O2) and preincubated for 2 minutes. The three minutes incubation for the amino acid absorption was started by addition of 50 μl of ^3 H-D-aspartate (specific activity 25 Ci/mmol, 10 pmol/ml of test solution). The vesicles were separated from the incubation medium by filtration and additional washing of the adhering labeled amino acids using a Titertek cell harvester (Flow Laboratories, Meckenheim). The ^3 H-D-aspartate absorption was measured by means of a liquid scintillation counter (Canberra-Packard, Model 1500, Frankfurt).
The preparation activity is indicated in percent of the specific ^3 H-D-aspartate absorption, relative to control values (100%), in Table 3. Adenosine triphosphate (ATP) was used for comparison as the standard substance (see Table 3) and at 1 mM caused a 35% increase in the ^3 H-D-aspartate absorption.

NMDA-induced cramps = test: Inhibition of NMDA-induced cramps in the mouse; type: in vivo; conditions: po, 1 h
Protocol: 4. Inhibition of NMDA-induced-cramps in the mouse
The examples listed below show neuroprotective activity in that they antagonize the cramps induced by NMDA (N-methyl-(D)-aspartate). To this end, intravenous injections of 20-30 mg/kg of NMDA are carried out on a male NMRI (Naval Medical Research Institute) mice of 22-24 g body weight, which leads to stereotypes, clonic cramps and in the majority of cases to mortality. In order to investigate an NMDA-antagonist activity of the test substances, they are administered orally one hour before NMDA. The animals are then observed for the abovementioned symptoms for up to 60 min. The number of animals with clonic cramps and the incidence of mortality, expressed in percent change compared to the control group, is regarded as the evaluation criterion.

[5] = system: CA1 pyramidal cells of the hippocampus after forebrain ischemia; test: Neuroprotection after forebrain ischemia in the gerbil; conditions: 15 minutes before ischemia; for Cell necroses (% change): histopathological score CA1, treated versus control group; for Behavior score (% change): treated versus control group
Protocol: A 5-minutes' ischemia of the forebrain with subsequent recirculation is produced in 20 male Mongolian gerbils under halothane anesthesia by bilateral closure of the corotid artery by means of aneurysm clips. 7 days later, the animals are decapitated under halothane anesthesia, the brains are fixed by immersion in Carnoy solution and the extent of neuron damage in the CA1 region of the hippocampus is determined "blind" with the aid of a 5-stage histopathological score. The test substance is administered intraperitoneally or orally 15 minutes before ischemia to each group of 10 gerbils. One ischemic control group, also of 10 animals, is treated with the respective solvents per test substance.

[6] = preparation concentration 10 μM, 25 μmol/l NMDA stimulus, relative to control S2/S1, read-out: Inhibition of 3H-acetylcholine release from striatum sections, Inhibition (%)
[7] = preparation concentration 500 μM
[8] = preparation concentration 10 μM
[9] = 50 mg/kg p.o., one hour before NMDA i.v., change compared to control group, read-out: Inhibition of convulsions
[10] = read-out: Inhibition of mortality
[11] = preparation concentration 100 μM
[12] = read-out: Inhibition of 3H-acetylcholine release from striatum sections, Inhibition (%)

Q: With `O=C(O)C1CN(CCCP(=O)(O)O)CCN1` (racemic) [CPP, 3-(+)-2-carboxypiperazin-4-ylpropyl-1-phosphonic acid, reference compound] as the molecule, how does the “Inhibition of 3H-MK-801 binding to the NMDA receptor-channel complex, inhibition (%)” value (shortened to “Inhibition of 3H-MK-801 binding … (%)”) [1] read?
A: 81%

Q: And the inhibition at 10 µM [2, 6]?
A: 30%

Q: Which “Inhibition of 3H-MK-801 binding … (%)” value [1] does the source give for `CC(C)[C@@H]1CC[C@@H](C)C[C@H]1OC(=O)C1CC(C(=O)O)=NO1` (single isomer, unassigned; (-)) [Example 57, (-)-menthyl-3-carboxy-2-isoxazoline-5-yl-carboxylatedicyclohexylammonium salt] here?
A: 43%

Q: For `NCc1cc(C(=O)O)no1` [Example 1, 3-Carboxy-5-aminomethylisoxazole], which LD50 [3] is on record?
A: > 200 mg/kg

Q: What about the “Stimulation of the 3H-D-aspartate absorption, Stimulation (%)” value (“Stimulation … (%)” for short) [4, 7] of the same molecule?
A: 15%

Q: What about the inhibition at 10 µM [2, 6] of the same molecule?
A: 13%

Q: What about the inhibition in vivo at 63 mg/kg (NMDA-induced cramps; 63 mg/kg p.o., one hour before NMDA i.v., change compared to control group, read-out: Inhibition of convulsions) of the same molecule?
A: 50%

Q: Which “Inhibition of 3H-MK-801 binding … (%)” value [1] does the source give for `O=C(O)c1cc(CNCc2ccccc2)on1` [Example 2, 5-Benzylaminomethyl-3-carboxyisoxazole] here?
A: 10%

Q: What about the “Stimulation … (%)” value [4, 7] of the same molecule?
A: 12%

Q: For `Cl.NCc1cc(CCC(=O)OCc2ccccc2)no1` [Example 5, Benzyl 5-aminomethylisoxazole-3-propionate hydrochloride], which “Inhibition of 3H-MK-801 binding … (%)” value [1] is on record?
A: 78%

Q: What about the “Stimulation … (%)” value [4, 8] of the same molecule?
A: 26%

Q: For `CC(C)[C@H]1CC[C@H](C)C[C@@H]1OC(=O)CCc1cc(CN)on1` [Example 7, (+)-menthyl 5-aminomethylisoxazole-3-propionate toluene-4-sulfonate], which inhibition at 10 µM [2, 6] is on record?
A: 28%

Q: Which LD50 [3] does the source give for `CC(C)[C@@H]1CC[C@@H](C)C[C@H]1OC(=O)CCc1cc(CN)on1` [Example 8, (-)-menthyl 5-aminomethylisoxazole-3-propionate toluene-4-sulfonate] here?
A: 50 to 100 mg/kg

Q: What about the “Stimulation … (%)” value [4, 8] of the same molecule?
A: 13%

Q: What about the “Cell necroses (% change)” value ([5]; 50 mg/kg p.o.) of the same molecule?
A: -46 % change

Q: What about the “Behavior score (% change)” value ([5]; 50 mg/kg p.o.) of the same molecule?
A: 0 % change

Q: And the inhibition at 10 µM [2, 6]?
A: 30%

Q: And the inhibition in vivo at 50 mg/kg (NMDA-induced cramps; [9])?
A: 70%

Q: What about the inhibition in vivo at 50 mg/kg (NMDA-induced cramps; [10]) of the same molecule?
A: 100%

Q: With `NCc1cc(CCC(=O)O)no1` [Example 12, 5-Aminomethylisoxazole-3-propionic acid] as the molecule, how does the LD50 [3] read?
A: > 100 mg/kg

Q: What about the “Stimulation … (%)” value [4, 7] of the same molecule?
A: 17%

Q: What about the “Cell necroses (% change)” value ([5]; 10 mg/kg i.p.) of the same molecule?
A: -32 % change

Q: What about the “Behavior score (% change)” value ([5]; 10 mg/kg i.p.) of the same molecule?
A: 0 % change

Q: What about the “Cell necroses (% change)” value ([5]; 50 mg/kg p.o.) of the same molecule?
A: -14 % change

Q: What about the “Behavior score (% change)” value ([5]; 50 mg/kg p.o.) of the same molecule?
A: 0 % change

Q: And the inhibition in vivo at 50 mg/kg (NMDA-induced cramps; [9])?
A: 45%

Q: And the inhibition in vivo at 50 mg/kg (NMDA-induced cramps; [10])?
A: 60%

Q: With `CC(C)[C@@H]1CC[C@@H](C)C[C@H]1OC(=O)CCc1cc(C[N+](C)(C)C)on1` [Example 18, (-)-Menthyl 5-trimethylammoniomethylisoxazole-3-propionate iodide] as the molecule, how does the “Stimulation … (%)” value [4, 11] read?
A: 46%

Q: And the “Cell necroses (% change)” value ([5]; 50 mg/kg p.o.)?
A: -23 % change

Q: And the “Behavior score (% change)” value ([5]; 50 mg/kg p.o.)?
A: +15 % change

Q: What about the inhibition at 10 µM [2, 6] of the same molecule?
A: 22%

Q: With `CC(C)[C@H]1CC[C@H](C)C[C@@H]1OC(=O)CCc1cc(CNC(=O)[C@@H](N)Cc2ccccc2)on1` [Example 20, (+)-Menthyl 5-(L-phenylalanylamino)methylisoxazole-3propionate hydrochloride] as the molecule, how does the LD50 [3] read?
A: 25 to 50 mg/kg

Q: And the inhibition at 10 µM [2, 6]?
A: 18%

Q: What about the inhibition in vivo at 50 mg/kg (NMDA-induced cramps; [9]) of the same molecule?
A: 10%

Q: What about the inhibition in vivo at 50 mg/kg (NMDA-induced cramps; [10]) of the same molecule?
A: 100%

Q: Which results are given for `COC(=O)CCc1cc(CNC(=O)[C@@H](N)Cc2ccccc2)on1.Cl` [Example 22, Methyl 5-(L-phenylalanylamino)methylisoxazole-3-propionate hydrochloride]?
A: Stimulation of the 3H-D-aspartate absorption, Stimulation (%) [4, 11]: 23%; inhibition at 10 µM [2, 6]: 15%

Q: With `O=C(O)CCC1=NOC(c2ccccn2)C1` (stereo not drawn) [Example 33, 3-(2-Carboxyethyl)-5-(2-pyridyl)-2-isoxazoline] as the molecule, how does the inhibition at 10 µM [2, 6] read?
A: 26%

Q: For `COC(=O)CCC1CC(CN)=NO1` (stereo not drawn) [Example 34, Methyl 3-aminomethyl-2-isoxazoline-5-propionate toluene-4-sulfonate], which inhibition at 10 µM [2, 12] is on record?
A: 9%

Q: With `O=C(O)C1=NOC(C(=O)O)C1` (stereo not drawn) [Example 56, 3,5-dicarboxyl-2-isoxazoline] as the molecule, how does the “Stimulation … (%)” value [4, 7] read?
A: 17%

Q: And the inhibition at 10 µM [2, 6]?
A: 11%

Q: With `O=C(O)CCc1cc(CO)on1` [Example 59, 5-Hydroxylmethyl-isoxazole-3-propionate sodium salt] as the molecule, how does the inhibition at 10 µM [2, 12] read?
A: 26%
